What was measured:
[1] = Antiproliferative activity against human A431 cells harboring WT EGFR after 72 hrs by MTS assay; type: cell-based, A-431; details: human, A431 cells harboring WT EGFR
[2] = Selectivity index, ratio of GI50 for human A431 cells harboring WT EGFR to GI50 for human NCI-H1975 cells harboring EGFR T790M/L858R double mutant
[3] = tested on: NCI-H1975; test: Antiproliferative activity against human NCI-H1975 cells harboring EGFR T790M/L858R double mutant after 72 hrs by MTS assay; type: functional, cell-based; details: Homo sapiens, NCI-H1975, 72 h

Row | GI50 [3] | Compound | GI50 at 72 h [1] | RatioGI50 [2]
1 | 166 nM | C=CC(=O)Nc1cc(Nc2nccc(-c3cn(C)c4cccnc34)n2)c(OC(F)F)cc1N1CCN(C)CC1 | 1440 nM | 8.7
2 | 2880 nM | C=CC(=O)Nc1cc(Nc2nccc(-c3cn(C)c4cccnc34)n2)c(OC)cc1N1CCC[C@H]1CN(C)C | 2100 nM | 0.7
3 | 844 nM | C=CC(=O)Nc1cc(Nc2nccc(-c3noc4ccccc34)n2)c(OC)cc1N1CCC[C@H]1CN(C)C | > 10000 nM | >75.1
4 | 4 nM | C=CC(=O)Nc1cc(Nc2nccc(-c3noc4ccccc34)n2)c(OC(F)F)cc1N(C)CCN(C)C | 89.1 nM | 22.3

Reference: ChEMBL document CHEMBL4382217 (Bioorg Med Chem, 2018)
